In PMC6269819, “Evaluation of the Biological Activity of Naturally Occurring 5,8-Dihydroxycoumarin” (Molecules, 2013):
Values joined by “and” are separate entries in the source; they are usually repeats but may differ in a detail not shown here. Equal entries are not always repeated. Marks after values point to notes of the source that are not given here.

What was measured:
[1] = ABTS•+ radical cation decolorization assay; settings: 16 min reaction
Protocol: The experiments were carried out using a slightly modified 2,2’-azinobis (3-ethylbenzothiazoline-6-sulfonic acid) diammonium salt (ABTS, Sigma-Aldrich Chemie, Steinheim, Germany) decolorization assay. Stock solution of ABTS (2 mM) was prepared by dissolving in 50 mL of phosphate buffered saline (PBS) obtained by dissolving 0.27 g of KH2PO4 (Jansen Chimica, Beerse, Belgium), 1.42 g of Na2HPO4, 8.18 g of NaCl, and 0.15 g of KCl (Merck, Darmstadt, Germany) in 1 L of distilled water. The pH was adjusted to 7.4 using NaOH solution. The ABTS^•+ was produced by reacting 50 mL of ABTS stock solution with 200 μL of K2S2O8 solution. The ABTS^•+ solution was diluted with PBS before measurements to obtain the absorbance of 0.800 ± 0.030 at 734 nm. 5,8-DHC was dissolved in PBS at the concentrations of 0.0025, 0.005, 0.01, 0.025 and 0.05% before the reaction. A 3 mL aliquot of ABTS^•+ solution was mixed with 30 μL of 5,8-DHC solution in the 1 cm path length quartz cuvette. The absorbance was read at ambient temperature after 16 min. PBS solution was used as a blank. All determinations were carried out in triplicate. Radical scavenging capacity was expressed as in DPPH^• scavenging assay.

[2] = Ferric reducing/antioxidant power (FRAP) assay
Protocol: The ability of antioxidants to reduce ferric ion to the ferrous ion, (FRAP assay) is another indicator frequently used for assessing antioxidant power. Ferrous ion (Fe^2+) produced in this assay forms a blue complex (Fe^2+/TPTZ) absorbing at 593 nm. Briefly, the reagent was prepared by mixing acetate buffer (300 mM, pH 3.6), a solution of 10 mM TPTZ in 40 mM HCl, and 20 mM FeCl3 × 6H2O at 10:1:1 (v/v/v). Firstly 300 μL of freshly prepared FRAP reagent was heated to 37 °C and an absorbance (A0) of a blank reagent was read at 593 nm in a Biotek EL808 microplate reader (Winooski, VT, USA). Then 10 μL of 0.01% 5,8-DHC solution in water and 30 μL H2O were added and the absorbance (A) was recorded every 1 min during the whole monitoring period which lasted up to 30 min. The change in the absorbance (ΔA593 nm) between the final reading and A0 was calculated for each sample and related to the ΔA593 nm of a Fe^2+ reference solution which was measured simultaneously. The value is expressed in Trolox equivalents required to obtain similar reducing power.

[3] = test system: Wistar rat bone marrow cells; assay: Micronucleus in vivo assay in rat bone marrow
Excerpt: Male albino Wistar rats aged 8–10 weeks and having body weight of 200–220 g, were used in the present study. The animals were supplied by the Animal Facility of the Department of Immunology, State Research Institute Center for Innovative Medicine. Ethical approval was given by the Committee of the Lithuanian Animal Care and Use. Prior to the start of the study, the animals were acclimatized for 7 days. They were housed under conditions of constant temperature, humidity and a light/dark cycle of 12 h/12 h with free access to standard commercial pellet diet and drinking water. The animals were randomly distributed into 11 experimental groups of six rats each.
We used a mixture of dimethylsulfoxide (DMSO) and sunflower oil (1:2) as the vehicle for 5,8-DHC (5,8-DHC was dissolved in DMSO and adjusted to the desired dose with sunflower oil immediately before administration). For the acute treatment, the animals received single intraperitoneal (i.p.) injections of 10 or 20 mg/kg of 5,8-DHC in 1 mL volume per 100 g body weight (b.w.). The negative control group comprised animals, given a single i.p. injection of vehicle (1 mL/100 g b.w.) and the positive control group, given cyclophosphamide (CP, 30 mg/kg adjusted in 0.5 mL/100 g b.w. in sterile physiological saline). A commercial form of cyclophosphamide was used (‘Endoxan’, ASTA Medica AG, Frankfurt, Germany). Blank controls comprised untreated animals. For the repeated treatment, 5,8-DHC (10 or 20 mg/kg) or vehicle was administered via gavage (1 mL/100 g b.w.) once a day for 3 consecutive days. Animals were sacrificed 24 h or 48 h after the last dose administration. Colchicine was applied i.p. at a dose of 2 mg/kg b.w. in 1 mL volume 90 min before sacrifice. Both femurs were dissected from each animal and used to obtain bone marrow preparations for the analysis of chromosome aberrations and micronucleus.
The bone marrow MN assay was conducted according to the standard procedure. Ends of the femura were cut off and the bone marrow was washed out with 2 mL of heat-inactivated foetal calf serum (Biochrom AG, Berlin, Germany), mixed thoroughly to obtain a fine suspension and centrifuged for 5 min at 150 × g. The supernatant was discarded and the cell pellet was carefully re-suspended. At least two smears per animal were prepared and allowed to air dry prior to fixation with methanol. The slides were stained in May-Grünwald solution followed by Giemsa (both Merck), coded and scored blind by the same scorer under magnification of 1000× (Jenaval, Zeiss, Jena, Germany). Micronucleated polychromatic erythrocyte (MNPCE) frequencies were based on the observation of 2,000 immature polychromatic erythrocytes (PCEs). Bone marrow toxicity was monitored by a decrease of PCE to total erythrocytes (e.g., PCEs+NCEs, normochromatic erythrocytes). At least 1,000 bone marrow erythrocytes per animal were analysed.

[4] = repeated gavage 3 × 10 mg/kg b.w., sacrifice 48 h
[5] = repeated gavage 3 × 20 mg/kg b.w., sacrifice 48 h
[6] = single i.p. 10 mg/kg b.w., sacrifice 24 h
[7] = single i.p. 10 mg/kg b.w., sacrifice 48 h

Question: With `O=c1ccc2c(O)ccc(O)c2o1` [5,8-DHC, 5,8-Dihydroxycoumarin] as the compound, how does the “IC50 in ABTS•+ reaction” value [1] read?
Answer: 0.028%

Question: And the FRAP value [2]?
Answer: 577 ± 0.0 mg/g in Trolox equivalents

Question: What about the “cytotoxicity (decline of the proportion of PCEs to total erythrocytes)” value ([3]; rat, in vivo) of the same compound?
Answer: no signs of 5,8-DHC cytotoxicity

Question: What about the “effect on the frequency of MNPCEs” value ([3]; repeated gavage) of the same compound?
Answer: no obvious effect

Question: What about the “MNPCE (%± S.E.M.)” value [3, 4] of the same compound?
Answer: 0.24 ± 0.05%

Question: What about the “PCE (%± S.E.M.)” value [3, 4] of the same compound?
Answer: 31.7 ± 4.0%

Question: What about the “MNPCE (%± S.E.M.)” value [3, 5] of the same compound?
Answer: 0.23 ± 0.05%

Question: And the “PCE (%± S.E.M.)” value [3, 5]?
Answer: 45.5 ± 3.5%

Question: What about the “MNPCE (%± S.E.M.)” value [3, 6] of the same compound?
Answer: 0.56 ± 0.08 ^a %

Question: And the “PCE (%± S.E.M.)” value [3, 6]?
Answer: 32.1 ± 1.9%

Question: What about the “MNPCE (%± S.E.M.)” value [3, 7] of the same compound?
Answer: 0.30 ± 0.06%

Question: And the “PCE (%± S.E.M.)” value [3, 7]?
Answer: 31.8 ± 5.6%

Question: And the “PCE (%± S.E.M.)” value ([3]; single i.p. 20 mg/kg b.w., sacrifice 24 h)?
Answer: 36.6 ± 2.8%

Question: And the “MNPCE (%± S.E.M.)” value ([3]; single i.p. 20 mg/kg b.w., sacrifice 24 h, 20 mg/kg)?
Answer: 0.63% and 0.63 ± 0.04 ^a %

Question: What about the “PCE (%± S.E.M.)” value ([3]; single i.p. 20 mg/kg b.w., sacrifice 48 h) of the same compound?
Answer: 26.6 ± 5.0%

Question: And the “MNPCE (%± S.E.M.)” value ([3]; single i.p. 20 mg/kg b.w., sacrifice 48 h, 20 mg/kg)?
Answer: 0.59% and 0.59 ± 0.14^a %
